Values joined by “and” are separate entries in the source; they are usually repeats but may differ in a detail not shown here. Identical values can stand only once. Like-named read-outs stand apart in the source and are kept apart here.
Tests used:
[1] = for 12-Hour Post-Dose Trough Values of Compound (2) after Repeated Administration / Average Plasma Concentrations of Compound (2) on Day 10 of Repeated Administration: Compound (1) 200 mg twice daily C-SEDDS
Procedure: (§1) A phase 1 clinical trial was conducted to evaluate the safety, tolerability, and pharmacokinetics of Compound (1) when orally administered to healthy adult males.
(§2) This clinical trial was a single-center, randomized, double-blind, placebo-controlled, single and multiple ascending dose study with the primary objective of evaluating the safety and tolerability of Compound (1) when orally administered to healthy adult males.
(§3) The subjects in each cohort consisted of 8 people, of which 6 were assigned to Compound (1) and 2 were assigned to placebo, and they were administered the drug.
Day 8, when repeated administration was started, corresponds to administration day 1 (Day 1), and day 17 corresponds to administration day 10 (Day 10).
(§4) The plasma concentration of Compound (2) was measured using a validated measurement method. Specifically, plasma was separated from collected blood and processed, and then the plasma concentration was measured by an LC/MS/MS apparatus.
For twice-daily administration of C-SEDDS, blood was further collected at 13, 14, 14.5, and 16 hours later to quantify Compound (2).

[2] = Phase 1 single-dose administration study: plasma concentration of Compound (2) by LC/MS/MS; conditions: oral, single dose
Procedure: as §1, §2, §3, §4
Compound (1) was orally administered once to 6 healthy adult males per dose and dosage form at doses of 6, 20, 100, 200, and 400 mg in the form of hard capsules (CAP), liquid self-emulsifying drug delivery system (L-SEDDS), or soft capsule self-emulsifying drug delivery system (C-SEDDS).

[3] = Measured Value, Repeated, Twice daily, 400(200×2)/C-SEDDS, day 10

SMILES: Cc1cc(=O)n(-c2ccc(C[C@H](NC(=O)c3cc(F)c(NS(=O)(=O)c4ccc(NC(=O)C(C)(C)C)cc4)cc3F)C(=O)O)cn2)c(=O)n1C [Compound (2)]
- increase of plasma concentration (trough value) 12 hours after the second dose on the 10th day of repeated administration ([1]; C-SEDDS 200 mg twice daily, versus single-dose administration): about eightfold
- 12-Hour Post-Dose Trough Values of Compound (2) after Repeated Administration ([1]; Day 0.5): 2.025 ng/mL
- 12-Hour Post-Dose Trough Values of Compound (2) after Repeated Administration ([1]; Day 1): 3.653 ng/mL
- 12-Hour Post-Dose Trough Values of Compound (2) after Repeated Administration ([1]; Day 1.5): 4.250 ng/mL
- 12-Hour Post-Dose Trough Values of Compound (2) after Repeated Administration ([1]; Day 2): 6.021 ng/mL
- 12-Hour Post-Dose Trough Values of Compound (2) after Repeated Administration ([1]; Day 2.5): 7.700 ng/mL
- 12-Hour Post-Dose Trough Values of Compound (2) after Repeated Administration ([1]; Day 3): 7.026 ng/mL
- 12-Hour Post-Dose Trough Values of Compound (2) after Repeated Administration ([1]; Day 3.5): 7.381 ng/mL
- 12-Hour Post-Dose Trough Values of Compound (2) after Repeated Administration ([1]; Day 4): 9.303 ng/mL
- 12-Hour Post-Dose Trough Values of Compound (2) after Repeated Administration ([1]; Day 4.5): 9.167 ng/mL
- 12-Hour Post-Dose Trough Values of Compound (2) after Repeated Administration ([1]; Day 5): 9.985 ng/mL
- 12-Hour Post-Dose Trough Values of Compound (2) after Repeated Administration ([1]; Day 5.5): 12.59 ng/mL
- 12-Hour Post-Dose Trough Values of Compound (2) after Repeated Administration ([1]; Day 6): 11.20 ng/mL
- 12-Hour Post-Dose Trough Values of Compound (2) after Repeated Administration ([1]; Day 6.5): 10.81 ng/mL
- 12-Hour Post-Dose Trough Values of Compound (2) after Repeated Administration ([1]; Day 7): 11.82 ng/mL
- 12-Hour Post-Dose Trough Values of Compound (2) after Repeated Administration ([1]; Day 7.5): 10.83 ng/mL
- 12-Hour Post-Dose Trough Values of Compound (2) after Repeated Administration ([1]; Day 8): 14.16 ng/mL
- 12-Hour Post-Dose Trough Values of Compound (2) after Repeated Administration ([1]; Day 8.5): 12.12 ng/mL
- 12-Hour Post-Dose Trough Values of Compound (2) after Repeated Administration ([1]; Day 9): 15.06 ng/mL
- 12-Hour Post-Dose Trough Values of Compound (2) after Repeated Administration ([1]; Day 9.5): 12.20 ng/mL
- 12-Hour Post-Dose Trough Values of Compound (2) after Repeated Administration ([1]; Day 10): 13.69 ng/mL
- Average Plasma Concentrations of Compound (2) on Day 10 of Repeated Administration ([1]; Day 10, Time 0.5 h): 11.82 ng/mL
- Average Plasma Concentrations of Compound (2) on Day 10 of Repeated Administration ([1]; Day 10, Time 1 h): 10.63 ng/mL
- Average Plasma Concentrations of Compound (2) on Day 10 of Repeated Administration ([1]; Day 10, Time 1.5 h): 10.52 ng/mL
- Average Plasma Concentrations of Compound (2) on Day 10 of Repeated Administration ([1]; Day 10, Time 2 h): 14.42 ng/mL
- Average Plasma Concentrations of Compound (2) on Day 10 of Repeated Administration ([1]; Day 10, Time 2.5 h): 17.31 ng/mL
- Average Plasma Concentrations of Compound (2) on Day 10 of Repeated Administration ([1]; Day 10, Time 3 h): 18.02 ng/mL
- Average Plasma Concentrations of Compound (2) on Day 10 of Repeated Administration ([1]; Day 10, Time 4 h): 20.07 ng/mL
- Average Plasma Concentrations of Compound (2) on Day 10 of Repeated Administration ([1]; Day 10, Time 5 h): 20.59 ng/mL
- Average Plasma Concentrations of Compound (2) on Day 10 of Repeated Administration ([1]; Day 10, Time 6 h): 14.19 ng/mL
- Average Plasma Concentrations of Compound (2) on Day 10 of Repeated Administration ([1]; Day 10, Time 7 h): 12.13 ng/mL
- Average Plasma Concentrations of Compound (2) on Day 10 of Repeated Administration ([1]; Day 10, Time 8 h): 10.93 ng/mL
- Average Plasma Concentrations of Compound (2) on Day 10 of Repeated Administration ([1]; Day 10, Time 12 h): 12.20 ng/mL
- Average Plasma Concentrations of Compound (2) on Day 10 of Repeated Administration ([1]; Day 10, Time 13 h): 15.64 ng/mL
- Average Plasma Concentrations of Compound (2) on Day 10 of Repeated Administration ([1]; Day 10, Time 14 h): 25.37 ng/mL
- Average Plasma Concentrations of Compound (2) on Day 10 of Repeated Administration ([1]; Day 10, Time 14.5 h): 25.16 ng/mL
- Average Plasma Concentrations of Compound (2) on Day 10 of Repeated Administration ([1]; Day 10, Time 15 h): 22.99 ng/mL
- Average Plasma Concentrations of Compound (2) on Day 10 of Repeated Administration ([1]; Day 10, Time 16 h): 20.48 ng/mL
- Average Plasma Concentrations of Compound (2) on Day 10 of Repeated Administration ([1]; Day 10, Time 21 h): 13.24 ng/mL
- Average Plasma Concentrations of Compound (2) on Day 10 of Repeated Administration ([1]; Day 10, Time 24 h): 13.69 ng/mL
- 12-Hour Post-Dose Trough Values of Compound (2) after Repeated Administration ([1]; Initial Value): 0.000 ng/mL
- Judgment Trough Value [1, 3]: A (IC90 (6.9 ng/mL) or higher)
- Plasma Concentration Trough Value [1, 3]: 13.69 ng/mL and 13.7 ng/mL
- Average Plasma Concentrations of Compound (2) after Single-Dose Administration ([2]; Compound (1) 6 mg CAP, Time 1 h): 0.121 ng/mL
- Average Plasma Concentrations of Compound (2) after Single-Dose Administration ([2]; Compound (1) 6 mg CAP, Time 1.5 h): 0.350 ng/mL
- Average Plasma Concentrations of Compound (2) after Single-Dose Administration ([2]; Compound (1) 6 mg CAP, Time 2 h): 0.448 ng/mL
- Average Plasma Concentrations of Compound (2) after Single-Dose Administration ([2]; Compound (1) 6 mg CAP, Time 2.5 h): 0.536 ng/mL
- Average Plasma Concentrations of Compound (2) after Single-Dose Administration ([2]; Compound (1) 6 mg CAP, Time 3 h): 0.554 ng/mL
- Average Plasma Concentrations of Compound (2) after Single-Dose Administration ([2]; Compound (1) 6 mg CAP, Time 4 h): 0.590 ng/mL
- Average Plasma Concentrations of Compound (2) after Single-Dose Administration ([2]; Compound (1) 6 mg CAP, Time 5 h): 0.424 ng/mL
- Average Plasma Concentrations of Compound (2) after Single-Dose Administration ([2]; Compound (1) 6 mg CAP, Time 6 h): 0.313 ng/mL
- Average Plasma Concentrations of Compound (2) after Single-Dose Administration ([2]; Compound (1) 6 mg CAP, Time 7 h): 0.209 ng/mL
- Average Plasma Concentrations of Compound (2) after Single-Dose Administration ([2]; Compound (1) 6 mg CAP, Time 8 h): 0.127 ng/mL
- Average Plasma Concentrations of Compound (2) after Single-Dose Administration ([2]; Compound (1) 6 mg CAP, Time 12 h): 0.075 ng/mL
- Average Plasma Concentrations of Compound (2) after Single-Dose Administration ([2]; Compound (1) 20 mg CAP, Time 1 h): 0.211 ng/mL
- Average Plasma Concentrations of Compound (2) after Single-Dose Administration ([2]; Compound (1) 20 mg CAP, Time 1.5 h): 0.585 ng/mL
- Average Plasma Concentrations of Compound (2) after Single-Dose Administration ([2]; Compound (1) 20 mg CAP, Time 2 h): 0.768 ng/mL
- Average Plasma Concentrations of Compound (2) after Single-Dose Administration ([2]; Compound (1) 20 mg CAP, Time 2.5 h): 1.023 ng/mL
- Average Plasma Concentrations of Compound (2) after Single-Dose Administration ([2]; Compound (1) 20 mg CAP, Time 3 h): 0.926 ng/mL
- Average Plasma Concentrations of Compound (2) after Single-Dose Administration ([2]; Compound (1) 20 mg CAP, Time 4 h): 0.817 ng/mL
- Average Plasma Concentrations of Compound (2) after Single-Dose Administration ([2]; Compound (1) 20 mg CAP, Time 5 h): 0.702 ng/mL
- Average Plasma Concentrations of Compound (2) after Single-Dose Administration ([2]; Compound (1) 20 mg CAP, Time 6 h): 0.567 ng/mL
- Average Plasma Concentrations of Compound (2) after Single-Dose Administration ([2]; Compound (1) 20 mg CAP, Time 7 h): 0.533 ng/mL
- Average Plasma Concentrations of Compound (2) after Single-Dose Administration ([2]; Compound (1) 20 mg CAP, Time 8 h): 0.507 ng/mL
- Average Plasma Concentrations of Compound (2) after Single-Dose Administration ([2]; Compound (1) 20 mg CAP, Time 12 h): 0.351 ng/mL
- Average Plasma Concentrations of Compound (2) after Single-Dose Administration ([2]; Compound (1) 20 mg CAP, Time 15 h): 0.338 ng/mL
- Average Plasma Concentrations of Compound (2) after Single-Dose Administration ([2]; Compound (1) 20 mg CAP, Time 21 h): 0.339 ng/mL
- Average Plasma Concentrations of Compound (2) after Single-Dose Administration ([2]; Compound (1) 20 mg CAP, Time 24 h): 0.245 ng/mL
- Average Plasma Concentrations of Compound (2) after Single-Dose Administration ([2]; Compound (1) 100 mg CAP, Time 1 h): 0.556 ng/mL
- Average Plasma Concentrations of Compound (2) after Single-Dose Administration ([2]; Compound (1) 100 mg CAP, Time 1.5 h): 1.274 ng/mL

— patent EP4691468A1, “PHARMACEUTICAL COMPOSITION FOR TREATING INFLAMMATORY BOWEL DISEASE” (EA Pharma Co., Ltd., priority 2023, dated 2024)
